Experimental data published in patent US20230389542A1, “USE OF [(1,5-DIPHENYL-1H-PYRAZOL-3-YL)OXY] ACETIC ACID DERIVATIVES AND THEIR SALTS AND COMPOSITIONS CONTAINING THEM, FOR REDUCING PHYTOTOXIC EFFECTS OF AGROCHEMICALS, IN PARTICULAR OF HERBICIDES, IN USEFUL PLANTS AND CROP PLANTS” (BAYER AKTIENGESELLSCHAFT, priority 2020, published 2023).

What was measured:
[1] = test system: summer wheat (TRZAS; cv. Triso); experiment: Relative action (efficacy code): reduction of damage by mesosulfuron-methyl on summer wheat; format: in vivo; set-up: key: 0: no reduction in damage (appearance corresponding to the herbicide control); 1: slight reduction in damage; 2: distinct reduction in damage; 3: significant reduction in damage; 4: complete reduction in damage (appearance corresponding to the untreated control); conditions: visual, 9-13 days after application
Description: 2.3 Relative Action of Selected Compounds of the Invention Using the Example of Reduction of Damage by Mesosulfuron-Methyl on Summer Wheat (TRZAS) The seeds of the crop plants to be treated are laid out in sandy loam in plastic pots (diameter μ4 cm), covered with soil and grown in a greenhouse under good conditions for germination and growth. The trial plants were treated at the early leaf stage (BBCH10-BBCH12). In the course of this, the inventive compounds of the general formula (I) formulated in the form of wettable powders (WP) were sprayed onto the above-ground parts of the plants as an aqueous suspension with a water application rate corresponding to 800 l/ha with addition of wetting agent (e.g. 0.2% Genapol-LRO or 0.2% Mero) in the specified dose. This was followed by the application of the herbicide. For this purpose, mesosulfuron-methyl, formulated in the form of water-dispersible granules (WG), was sprayed onto the above-ground parts of the plants in the form of an aqueous dispersion with a water application rate corresponding to 800 l/ha with addition of wetting agent (e.g. 0.2% Genapol-LRO or 1 l/ha Biopower) in a dose of 40-60 g/ha. The dose of the herbicide was chosen here such that it causes visually apparent damage (min. 30%, max. 75%) compared to untreated crop plants at the evaluation time on a control group of crop plants without safener treatment that were included in the same trial. After application, the plants were cultivated under good growth conditions in a greenhouse. 9-13 days after application, the efficacy of the test compounds was assessed visually. For this purpose, the appearance of the plants treated with the test compound and herbicide was compared to the corresponding herbicide controls (without safener; with clearly visible damage) and the untreated controls (without damage). The damage-reducing effect of the test compounds was expressed here in graded efficacy codes according to the following scheme: • 0: no reduction in damage (appearance corresponding to the herbicide control) • 1: slight reduction in damage • 2: distinct reduction in damage • 3: significant reduction in damage • 4: complete reduction in damage (appearance corresponding to the untreated control) The trials show clear efficacy of the inventive compounds selected by way of example with regard to the reduction in damage to the summer wheat crop plant (TRZAS; cv. Triso) caused by the herbicide mesosulfuron-methyl: […]

[2] = test system: summer barley (HORVS; cv. Montoya); experiment: Relative action (efficacy code): reduction of damage by mesosulfuron-methyl on summer barley; format: in vivo; set-up: key: 0: no reduction in damage (appearance corresponding to the herbicide control); 1: slight reduction in damage; 2: distinct reduction in damage; 3: significant reduction in damage; 4: complete reduction in damage (appearance corresponding to the untreated control); conditions: visual, 9-13 days after application, 2 repeats coded separately
Description: 2.4 Relative Action of Selected Compounds of the Invention Using the Example of Reduction of Damage by Mesosulfuron-Methyl on Summer Barley (HORVS) The seeds of the crop plants to be treated are laid out in sandy loam in plastic pots (diameter˜4 cm), covered with soil and grown in a greenhouse under good conditions for germination and growth. The trial plants were treated at the early leaf stage (BBCH10-BBCH12). In the course of this, the inventive compounds of the general formula (I) formulated in the form of wettable powders (WP) were sprayed onto the above-ground parts of the plants as an aqueous suspension with a water application rate corresponding to 800 l/ha with addition of wetting agent (e.g. 0.2% Genapol-LRO or 0.2% Mero) in the specified dose. This was followed by the application of the herbicide. For this purpose, mesosulfuron-methyl, formulated in the form of water-dispersible granules (WG), was sprayed onto the above-ground parts of the plants in the form of an aqueous dispersion with a water application rate corresponding to 800 l/ha with addition of wetting agent (e.g. 0.2% Genapol-LRO or 1 l/ha Biopower) in a dose of 40-60 g/ha. The dose of the herbicide was chosen here such that it causes visually apparent damage (min. 30%, max. 75%) compared to untreated crop plants at the evaluation time on a control group of crop plants without safener treatment that were included in the same trial. After application, the plants were cultivated under good growth conditions in a greenhouse. 9-13 days after application, the efficacy of the test compounds was assessed visually. For this purpose, the appearance of the plants treated with the test compound and herbicide was compared to the corresponding herbicide controls (without safener; with clearly visible damage) and the untreated controls (without damage). The damage-reducing effect of the test compounds was expressed here separately for 2 repeats in graded efficacy codes according to the following scheme: • 0: no reduction in damage (appearance corresponding to the herbicide control) • 1: slight reduction in damage • 2: distinct reduction in damage • 3: significant reduction in damage • 4: complete reduction in damage (appearance corresponding to the untreated control) The trials show clear efficacy of the inventive compounds selected by way of example with regard to the reduction in damage to the summer barley crop plant (HORVS; cv. Montoya) caused by the herbicide mesosulfuron-methyl: […]

[3] = safener 100 g/ha + mesosulfuron-methyl 40-60 g/ha
[4] = safener 500 g/ha + mesosulfuron-methyl 40-60 g/ha

**Q.** Which results are given for CCOC(=O)COc1cc(-c2ccc(F)cc2)n(-c2ccc(Cl)cc2Cl)n1 [I.11-32]?
**A.** Efficacy of the safener (efficacy code) [1, 3]: 2; Efficacy of the safener (efficacy code) [1, 4]: 2; Efficacy of the safener (efficacy code) [2, 4]: 2

**Q.** How did the “Efficacy of the safener (efficacy code)” value [1, 3] turn out when COC(=O)COc1cc(-c2ccc(F)cc2F)n(-c2ccc(Cl)cc2F)n1 [I.40-49] was run?
**A.** 3

**Q.** What about the “Efficacy of the safener (efficacy code)” value [1, 4] of the same molecule?
**A.** 3

**Q.** What about the “Efficacy of the safener (efficacy code)” value [2, 3] of the same molecule?
**A.** 2

**Q.** And the “Efficacy of the safener (efficacy code)” value [2, 4]?
**A.** 2-3

**Q.** CCOC(=O)COc1cc(-c2ccc(F)cc2F)n(-c2ccc(Cl)cc2F)n1 [I.41-49] was tested. Which “Efficacy of the safener (efficacy code)” value [1, 3] did it give?
**A.** 3

**Q.** What about the “Efficacy of the safener (efficacy code)” value [1, 4] of the same molecule?
**A.** 4

**Q.** What about the “Efficacy of the safener (efficacy code)” value [2, 3] of the same molecule?
**A.** 2

**Q.** What about the “Efficacy of the safener (efficacy code)” value [2, 4] of the same molecule?
**A.** 2

**Q.** For O=C(O)COc1cc(-c2ccc(F)cc2F)n(-c2ccc(Cl)cc2F)n1 [I.42-49], which “Efficacy of the safener (efficacy code)” value [1, 3] is on record?
**A.** 3

**Q.** What about the “Efficacy of the safener (efficacy code)” value [1, 4] of the same molecule?
**A.** 4

**Q.** What about the “Efficacy of the safener (efficacy code)” value [2, 3] of the same molecule?
**A.** 2-3

**Q.** What about the “Efficacy of the safener (efficacy code)” value [2, 4] of the same molecule?
**A.** 3

**Q.** Which “Efficacy of the safener (efficacy code)” value [1, 3] does the source give for CCOC(=O)COc1cc(-c2ccc(Cl)cc2F)n(-c2ccc(F)cc2Cl)n1 [I.47-48] here?
**A.** 3

**Q.** What about the “Efficacy of the safener (efficacy code)” value [1, 4] of the same molecule?
**A.** 4

**Q.** And the “Efficacy of the safener (efficacy code)” value [2, 3]?
**A.** 2

**Q.** And the “Efficacy of the safener (efficacy code)” value [2, 4]?
**A.** 3

**Q.** For CCOC(=O)COc1cc(-c2ccc(Cl)cc2F)n(-c2ccc(Cl)cc2F)n1 [I.47-49], which “Efficacy of the safener (efficacy code)” value [1, 4] is on record?
**A.** 3

**Q.** And the “Efficacy of the safener (efficacy code)” value [2, 3]?
**A.** 2

**Q.** What about the “Efficacy of the safener (efficacy code)” value [2, 4] of the same molecule?
**A.** 3

**Q.** What does the source list for CCOC(=O)COc1cc(-c2ccc(F)cc2Cl)n(-c2ccc(Cl)cc2F)n1 [I.50-49]?
**A.** Efficacy of the safener (efficacy code) [1, 3]: 2; Efficacy of the safener (efficacy code) [1, 4]: 3; Efficacy of the safener (efficacy code) [2, 3]: 2-3; Efficacy of the safener (efficacy code) [2, 4]: 3
